How the values were obtained:
Assay in all cases: cell-based
Design in all cases: Eurofins Cerep functional GPCR screen, antagonist mode, inhibition of control agonist response
Settings in all cases: read-out: % Inhibition of Control Agonist Response, Mean
α2A = biological target: T1, α2A (Homo sapiens, UniProt P08913)
T1 construct: gene ADRA2A

β1 = biological target: T2, β1 (Homo sapiens, UniProt P08588)
T2 construct: gene ADRB1

FFA4 (GPR120) = biological target: T3, FFA4 (GPR120) (Homo sapiens, UniProt Q5NUL3)
T3 construct: gene FFAR4

CB1 = biological target: T4, CB1 (Homo sapiens, UniProt P21554)
T4 construct: gene CNR1

A2B = biological target: T5, A2B (Homo sapiens, UniProt P29275)
T5 construct: gene ADORA2B

Ghrelin / GHSR-1a = biological target: T6, Ghrelin / GHSR-1a (Homo sapiens, UniProt Q92847)
T6 construct: GHSR-1a isoform

GPR39 = GPR39 (Homo sapiens, UniProt O43194)
CCR3 = CCR3 (Homo sapiens, UniProt P51677)
H2 = biological target: T7, H2 (Homo sapiens, UniProt P25021)
T7 construct: gene HRH2

GPR103/QRFP = biological target: T8, GPR103/QRFP (Homo sapiens, UniProt Q96P65)
T8 construct: gene QRFPR

α2C = biological target: T9, α2C (Homo sapiens, UniProt P18825)
T9 construct: gene ADRA2C

β2 = biological target: T10, β2 (Homo sapiens, UniProt P07550)
T10 construct: gene ADRB2

H3 = biological target: T11, H3 (Homo sapiens, UniProt Q9Y5N1)
T11 construct: gene HRH3

CysLT1 (LTD4) = biological target: T12, CysLT1 (LTD4) (Homo sapiens, UniProt Q9Y271)
T12 construct: gene CYSLTR1

BB1 = biological target: T13, BB1 (Homo sapiens, UniProt P28336)
T13 construct: gene NMBR

CXCR4 = CXCR4 (Homo sapiens, UniProt P61073)
D2S = biological target: T14, D2S (Homo sapiens, UniProt P14416)
T14 construct: gene DRD2; D2S short isoform

CX3CR1 = CX3CR1 (Homo sapiens, UniProt P49238)
CGRP = biological target: T15, CGRP (Homo sapiens, UniProt Q16602)
T15 construct: gene CALCRL

BLT1 (LTB4) = biological target: T16, BLT1 (LTB4) (Homo sapiens, UniProt Q15722)
T16 construct: gene LTB4R

FFA1 = biological target: T17, FFA1 (Homo sapiens, UniProt O14842)
T17 construct: gene FFAR1

CCR8 = CCR8 (Homo sapiens, UniProt P51685)
CCK1 (CCKA) = biological target: T18, CCK1 (CCKA) (Homo sapiens, UniProt P32238)
T18 construct: gene CCKAR

FFA3 = biological target: T19, FFA3 (Homo sapiens, UniProt O14843)
T19 construct: gene FFAR3

CCR6 = CCR6 (Homo sapiens, UniProt P51684)
GPR109A = biological target: T20, GPR109A (Homo sapiens, UniProt Q8TDS4)
T20 construct: gene HCAR2

T10 sequence (P07550 whole entry): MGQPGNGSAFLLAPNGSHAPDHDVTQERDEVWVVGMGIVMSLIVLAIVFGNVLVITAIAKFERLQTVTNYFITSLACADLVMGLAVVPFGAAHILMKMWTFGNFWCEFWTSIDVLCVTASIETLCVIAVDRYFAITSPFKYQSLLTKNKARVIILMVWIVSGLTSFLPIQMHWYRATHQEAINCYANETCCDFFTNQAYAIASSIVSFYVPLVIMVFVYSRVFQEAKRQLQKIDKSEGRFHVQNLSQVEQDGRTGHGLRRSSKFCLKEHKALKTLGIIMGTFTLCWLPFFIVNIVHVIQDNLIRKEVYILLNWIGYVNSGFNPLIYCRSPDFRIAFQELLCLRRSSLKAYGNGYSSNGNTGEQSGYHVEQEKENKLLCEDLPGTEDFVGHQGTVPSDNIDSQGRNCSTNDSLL
T4 sequence (P21554 whole entry): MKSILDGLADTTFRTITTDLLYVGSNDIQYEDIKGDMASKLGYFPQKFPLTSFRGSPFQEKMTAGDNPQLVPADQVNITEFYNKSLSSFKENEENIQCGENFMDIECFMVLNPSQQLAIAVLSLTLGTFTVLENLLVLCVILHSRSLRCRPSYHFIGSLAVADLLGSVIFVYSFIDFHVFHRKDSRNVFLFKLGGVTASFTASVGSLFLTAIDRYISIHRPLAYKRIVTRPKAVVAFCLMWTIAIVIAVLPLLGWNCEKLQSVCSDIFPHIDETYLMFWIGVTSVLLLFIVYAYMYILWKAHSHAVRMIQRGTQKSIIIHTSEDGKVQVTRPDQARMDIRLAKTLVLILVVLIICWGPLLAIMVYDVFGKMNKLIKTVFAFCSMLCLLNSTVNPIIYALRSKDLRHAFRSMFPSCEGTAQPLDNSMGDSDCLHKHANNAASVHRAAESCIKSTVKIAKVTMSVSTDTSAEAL
Chain of CX3CR1 (P49238 whole entry): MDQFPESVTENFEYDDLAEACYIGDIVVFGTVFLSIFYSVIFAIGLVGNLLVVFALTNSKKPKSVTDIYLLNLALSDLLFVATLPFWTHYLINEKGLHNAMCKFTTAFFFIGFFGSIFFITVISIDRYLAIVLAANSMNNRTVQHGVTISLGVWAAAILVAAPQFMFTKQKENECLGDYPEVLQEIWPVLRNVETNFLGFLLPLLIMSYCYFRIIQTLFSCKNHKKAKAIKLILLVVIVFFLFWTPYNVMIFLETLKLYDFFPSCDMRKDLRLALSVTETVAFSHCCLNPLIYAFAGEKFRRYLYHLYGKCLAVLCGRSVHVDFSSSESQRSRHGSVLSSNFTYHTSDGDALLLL
T19 sequence (O14843 whole entry): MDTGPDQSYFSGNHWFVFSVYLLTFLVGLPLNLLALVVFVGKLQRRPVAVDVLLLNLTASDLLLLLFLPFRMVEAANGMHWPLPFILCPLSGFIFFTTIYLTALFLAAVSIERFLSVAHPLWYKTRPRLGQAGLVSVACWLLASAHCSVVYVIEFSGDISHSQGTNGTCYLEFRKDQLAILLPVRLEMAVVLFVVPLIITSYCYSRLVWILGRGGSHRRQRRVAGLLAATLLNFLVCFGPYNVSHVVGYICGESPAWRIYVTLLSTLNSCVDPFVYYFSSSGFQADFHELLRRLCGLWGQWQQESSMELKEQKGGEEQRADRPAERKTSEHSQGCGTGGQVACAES
T17 sequence (O14842 whole entry): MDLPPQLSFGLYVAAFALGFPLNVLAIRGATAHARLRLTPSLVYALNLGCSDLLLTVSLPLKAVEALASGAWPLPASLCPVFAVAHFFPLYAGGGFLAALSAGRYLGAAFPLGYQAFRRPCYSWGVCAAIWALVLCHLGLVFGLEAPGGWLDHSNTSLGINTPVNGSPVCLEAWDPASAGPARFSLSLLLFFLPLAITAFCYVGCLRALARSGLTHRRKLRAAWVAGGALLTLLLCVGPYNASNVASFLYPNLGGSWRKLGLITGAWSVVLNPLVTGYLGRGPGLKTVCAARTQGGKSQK
T12 sequence (Q9Y271 whole entry): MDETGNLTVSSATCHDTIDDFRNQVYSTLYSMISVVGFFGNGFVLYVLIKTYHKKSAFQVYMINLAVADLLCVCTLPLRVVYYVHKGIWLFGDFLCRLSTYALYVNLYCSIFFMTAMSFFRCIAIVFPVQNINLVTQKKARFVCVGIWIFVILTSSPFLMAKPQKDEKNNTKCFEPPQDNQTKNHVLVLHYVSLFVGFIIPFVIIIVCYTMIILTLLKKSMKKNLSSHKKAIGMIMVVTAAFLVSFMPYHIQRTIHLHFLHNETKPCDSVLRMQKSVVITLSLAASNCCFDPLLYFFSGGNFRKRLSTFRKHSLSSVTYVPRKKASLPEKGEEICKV
T15 sequence (Q16602 whole entry): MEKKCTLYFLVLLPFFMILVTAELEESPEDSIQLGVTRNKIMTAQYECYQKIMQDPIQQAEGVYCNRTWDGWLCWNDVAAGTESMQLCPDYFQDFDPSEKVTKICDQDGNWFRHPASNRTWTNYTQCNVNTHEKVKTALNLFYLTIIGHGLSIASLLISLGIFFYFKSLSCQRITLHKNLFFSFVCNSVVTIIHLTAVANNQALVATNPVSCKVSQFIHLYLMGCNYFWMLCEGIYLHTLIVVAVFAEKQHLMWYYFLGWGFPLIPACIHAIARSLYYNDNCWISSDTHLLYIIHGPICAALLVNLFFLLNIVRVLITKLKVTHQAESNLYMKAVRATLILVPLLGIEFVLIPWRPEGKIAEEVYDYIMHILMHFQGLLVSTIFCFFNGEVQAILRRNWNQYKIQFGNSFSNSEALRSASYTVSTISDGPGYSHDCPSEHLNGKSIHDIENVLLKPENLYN
T15 sequence (O60894 whole entry partner): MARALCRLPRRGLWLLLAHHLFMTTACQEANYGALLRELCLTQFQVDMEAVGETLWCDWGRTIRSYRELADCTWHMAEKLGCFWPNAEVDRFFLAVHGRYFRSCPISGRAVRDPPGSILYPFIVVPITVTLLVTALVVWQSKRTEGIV
T3 sequence (Q5NUL3 whole entry): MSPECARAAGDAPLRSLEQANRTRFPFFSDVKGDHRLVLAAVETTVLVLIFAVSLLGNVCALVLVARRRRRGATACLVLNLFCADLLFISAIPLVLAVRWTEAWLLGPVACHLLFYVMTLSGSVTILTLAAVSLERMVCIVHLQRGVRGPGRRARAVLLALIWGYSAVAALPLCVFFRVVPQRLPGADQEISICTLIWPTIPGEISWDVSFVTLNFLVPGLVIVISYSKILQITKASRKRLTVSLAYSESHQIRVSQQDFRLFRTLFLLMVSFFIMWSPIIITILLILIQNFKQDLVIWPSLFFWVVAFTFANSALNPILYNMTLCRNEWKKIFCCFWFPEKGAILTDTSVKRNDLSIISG
T6 sequence (Q92847 whole entry, canonical isoform): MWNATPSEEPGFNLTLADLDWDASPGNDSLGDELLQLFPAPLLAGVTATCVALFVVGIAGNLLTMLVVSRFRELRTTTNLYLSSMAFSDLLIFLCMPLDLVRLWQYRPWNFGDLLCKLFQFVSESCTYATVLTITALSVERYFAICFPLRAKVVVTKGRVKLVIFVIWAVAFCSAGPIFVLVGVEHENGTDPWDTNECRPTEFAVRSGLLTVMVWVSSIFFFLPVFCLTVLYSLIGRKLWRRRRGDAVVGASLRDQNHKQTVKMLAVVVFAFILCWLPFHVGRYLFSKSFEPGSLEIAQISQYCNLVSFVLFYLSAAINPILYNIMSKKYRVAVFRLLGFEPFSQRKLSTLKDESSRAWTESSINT
T8 sequence (Q96P65 whole entry): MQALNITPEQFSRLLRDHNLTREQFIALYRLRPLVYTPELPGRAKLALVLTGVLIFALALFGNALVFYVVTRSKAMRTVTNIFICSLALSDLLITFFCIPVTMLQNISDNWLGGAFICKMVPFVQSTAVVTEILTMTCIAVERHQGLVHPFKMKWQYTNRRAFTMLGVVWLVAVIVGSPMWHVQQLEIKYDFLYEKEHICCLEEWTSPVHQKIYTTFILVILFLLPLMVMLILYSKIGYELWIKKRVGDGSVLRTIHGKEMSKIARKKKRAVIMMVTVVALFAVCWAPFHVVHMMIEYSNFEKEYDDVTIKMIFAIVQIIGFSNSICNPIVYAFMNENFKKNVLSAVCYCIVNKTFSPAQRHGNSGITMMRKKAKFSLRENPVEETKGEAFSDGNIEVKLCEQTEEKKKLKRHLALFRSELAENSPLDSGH
T13 sequence (P28336 whole entry): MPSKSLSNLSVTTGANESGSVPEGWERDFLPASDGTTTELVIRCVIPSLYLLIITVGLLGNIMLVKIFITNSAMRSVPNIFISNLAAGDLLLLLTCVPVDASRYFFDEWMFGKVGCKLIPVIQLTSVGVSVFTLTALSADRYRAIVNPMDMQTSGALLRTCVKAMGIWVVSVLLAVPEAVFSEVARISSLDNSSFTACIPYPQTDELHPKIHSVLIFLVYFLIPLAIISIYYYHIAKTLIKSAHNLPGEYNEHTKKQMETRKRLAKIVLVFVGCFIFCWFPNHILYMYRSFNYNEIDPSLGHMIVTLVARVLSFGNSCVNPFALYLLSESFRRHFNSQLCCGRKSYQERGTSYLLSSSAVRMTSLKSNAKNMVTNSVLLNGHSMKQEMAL
T5 sequence (P29275 whole entry): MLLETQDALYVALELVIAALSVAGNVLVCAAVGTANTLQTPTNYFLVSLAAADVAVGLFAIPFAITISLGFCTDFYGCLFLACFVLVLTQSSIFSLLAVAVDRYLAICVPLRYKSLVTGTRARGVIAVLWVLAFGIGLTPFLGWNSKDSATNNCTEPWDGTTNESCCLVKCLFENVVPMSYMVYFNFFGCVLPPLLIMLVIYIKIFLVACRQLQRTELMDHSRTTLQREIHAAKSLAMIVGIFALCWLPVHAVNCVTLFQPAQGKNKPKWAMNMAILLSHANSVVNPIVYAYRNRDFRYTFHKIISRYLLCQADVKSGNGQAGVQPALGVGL

`[O-][S@@+](Cc1cncs1)C(c1ccccc1)c1ccccc1` [S-CE-123, (S)-5-((Benzhydrylsulfinyl)Methyl)Thiazole] gave an inhibition at 2.8 µM (α2A) of -8.4%, an inhibition at 2.8 µM (β1) of 18.4% and an inhibition at 2.8 µM (FFA4 (GPR120)) of -14.4%. It also gave an inhibition at 2.8 µM (CB1) of -2.1%, an inhibition at 2.8 µM (A2B) of -11.8% and an inhibition at 2.8 µM (Ghrelin / GHSR-1a) of -11.7%. It also gave an inhibition at 2.8 µM (GPR39) of 1.6%, an inhibition at 2.8 µM (CCR3) of -10.7% and an inhibition at 2.8 µM (H2) of -2.4%. It also gave an inhibition at 2.8 µM (GPR103/QRFP) of -8.8%, an inhibition at 2.8 µM (α2C) of 0.3% and an inhibition at 2.8 µM (β2) of -1.2%. It also gave an inhibition at 2.8 µM (H3) of -0.3%, an inhibition at 2.8 µM (CysLT1 (LTD4)) of -12.9% and an inhibition at 2.8 µM (BB1) of -10.5%. It also gave an inhibition at 2.8 µM (CXCR4) of -40.7%, an inhibition at 2.8 µM (D2S) of 18.1% and an inhibition at 2.8 µM (CX3CR1) of -15.8%. For the same molecule, the inhibition at 2.8 µM (CGRP) was -18.8%, the inhibition at 2.8 µM (BLT1 (LTB4)) was -4.7% and the inhibition at 2.8 µM (FFA1) was -2.8%. The inhibition at 2.8 µM (CCR8) was -19.9%, the inhibition at 2.8 µM (CCK1 (CCKA)) was 18.2% and the inhibition at 2.8 µM (FFA3) was -1.4%. It also gave an inhibition at 2.8 µM (CCR6) of -26.7% and an inhibition at 2.8 µM (GPR109A) of -11.6%.

From article PMC10046369, “Low-Affinity/High-Selectivity Dopamine Transport Inhibition Sufficient to Rescue Cognitive Functions in the Aging Rat” (Biomolecules, 2023)
